Test results from paper PMC4128046, “Effect of a toggle switch mutation in TM6 of the human adenosine A3 receptor on Gi protein-dependent signalling and Gi-independent receptor internalization” (British Journal of Pharmacology, 2014).

How the values were obtained:
Type in all cases: cell-based
A3-vYc/β-arrestin2-vYnL = biological target: T1, A3-vYc/β-arrestin2-vYnL (Homo sapiens, UniProt P0DMS8); experiment: BiFC of receptor with β-arrestin2 (automated imaging), A3-vYc; details: A3-vYc/β-arrestin2-vYnL cells; for Maximal BiFC (%): percentage of 10 μM NECA in the cell line
T1 construct: cDNA encoding the full length human A3 receptor; expressed in transfected cells; host or cells: CHO-K1 stably expressing β-arrestin2-vYnL, stably co-transfected with A3-vYc

A3-YFP = biological target: T2, A3-YFP (Homo sapiens, UniProt P0DMS8); experiment: [3H]-cAMP accumulation assay, A3-YFP; details: for Emax: read-out: Maximum response (% inhibition of 3 μM FSK), cAMP accumulation assay, A3-YFP cells, 1 h stimulation
T2 construct: cDNA encoding the full length human A3 receptor; expressed in transfected cells
T2 sequence (P0DMS8 1-318): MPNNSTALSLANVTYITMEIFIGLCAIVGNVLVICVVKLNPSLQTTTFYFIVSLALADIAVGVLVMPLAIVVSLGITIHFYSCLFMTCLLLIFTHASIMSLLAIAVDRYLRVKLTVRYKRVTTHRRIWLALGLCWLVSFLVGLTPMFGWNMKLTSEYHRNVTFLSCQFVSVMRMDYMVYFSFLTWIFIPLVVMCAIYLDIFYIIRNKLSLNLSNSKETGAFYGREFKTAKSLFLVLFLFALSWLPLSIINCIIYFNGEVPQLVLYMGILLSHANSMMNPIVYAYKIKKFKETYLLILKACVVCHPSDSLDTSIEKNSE
Description: On the day of analysis, cells were labelled with [^3H]-adenine (2 μCi·mL^−1) in a total volume of 600 μL per well for 2 h at 37°C/5% CO2 in normal growth medium. After 2 h, the [^3H]-adenine-containing medium was removed; cells washed once in serum-free medium and fresh serum-free medium, containing 10 μM rolipram, added. The required concentration of agonist was added to the appropriate well and cells incubated for 10 min at 37°C. After 10 min, 10 μM FSK was added to all wells, apart from basal wells, and cells were incubated for a further 1 h at 37°C. The assay was terminated by the addition of 50 μL concentrated HCl to each well. The levels of [^3H]-cAMP incorporated were measured by sequential Dowex and alumina chromatography and the efficiency of each column was determined by the recovery of [^14C]-cAMP as described by Donaldson et al. ([1988]).
A basal and FSK control was included in each separate concentration-response CRE-SPAP gene transcription assay and cAMP accumulation assay to allow the responses in each cell line to be expressed as an inhibition of FSK-stimulated SPAP production.

[1] = biological target: T3, A3 W243F-vYc/β-arrestin2-vYnL (Homo sapiens, UniProt P0DMS8, W243F); experiment: BiFC of receptor with β-arrestin2 (automated imaging), A3 W243F-vYc; details: A3 W243F-vYc/β-arrestin2-vYnL cells; for Maximal BiFC (%): percentage of 10 μM NECA in the cell line
T3 construct: cDNA encoding the full length human A3 receptor; expressed in transfected cells; host or cells: CHO-K1 stably expressing β-arrestin2-vYnL, stably co-transfected with A3 W243F-vYc

SNAP-A3 W243F = biological target: T4, SNAP-A3 W243F (Homo sapiens, UniProt P0DMS8, W243F); experiment: Confocal imaging of SNAP-tagged receptor internalization, SNAP-A3 W243F; details: SNAP-A3 W243F transiently expressed in CHO CRE-SPAP cells, BG-AF488 label, 10 μM agonist
T4 construct: the methionine start signal was removed from cDNA encoding the full length A3; expressed in transfected cells; host or cells: CHO CRE-SPAP, transient (Fugene HD)
T4 sequence (P0DMS8 2-318 W243F limits assumed): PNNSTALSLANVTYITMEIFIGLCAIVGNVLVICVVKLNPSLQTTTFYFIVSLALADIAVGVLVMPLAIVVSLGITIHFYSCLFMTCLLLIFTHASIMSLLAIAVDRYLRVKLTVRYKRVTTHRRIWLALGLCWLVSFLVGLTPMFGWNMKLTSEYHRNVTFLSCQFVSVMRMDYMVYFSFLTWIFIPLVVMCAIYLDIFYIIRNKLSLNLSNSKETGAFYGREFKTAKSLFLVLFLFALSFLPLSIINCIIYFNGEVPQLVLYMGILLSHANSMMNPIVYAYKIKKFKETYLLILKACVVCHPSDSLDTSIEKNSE
Description: CHO-K1 cells stably expressing a cAMP response element-secreted placental alkaline phosphatase (CRE-SPAP) reporter gene (CHO CRE-SPAP) under hygromycin selectivity and CHO-K1 cells stably expressing β-arrestin2-vYnL (CHO β-arrestin2-vYnL, a gift from Dr. N. Holliday, University of Nottingham, Nottingham, UK) were maintained in DMEM/F12 medium containing 10% FCS and 2 mM L-glutamine at 37°C in a humidified atmosphere of air/CO2 (19:1). […] Cell lines were initially screened for YFP or bimolecular fluorescence complementation (BiFC) fluorescence and CRE-SPAP cells lines were subsequently tested in the CRE-SPAP gene transcription assay. […]
Live-cell BiFC imaging was performed on A3-vYc/β-arrestin2-vYnL and A3 W243F-vYc/β-arrestin2-vYnL cells grown in Nunc Labtek 8-well plates, and images obtained using a Zeiss 710 confocal microscope (Carl Zeiss GmbH, Jena, Germany) fitted with a 63× plan-Apochromat NA1.4 Ph3 oil-immersion objective. […] For both YFP, BiFC and BG-AF488 label, a 488 nm argon laser was used to excite the fluorophore and emission was detected using a BP505-530 filter. […] Images of A3-YFP and A3 W243F-YFP cells were taken with same pinhole diameter, laser power, gain and offset to allow comparison of YFP fluorescence. To obtain fluorescence intensity values, a region of interest was drawn around the plasma membrane of 10 cells per image in Zeiss AIM 4.2 software (Carl Zeiss GmbH).

[2] = 60 min, read-out: pEC50 (BiFC with β-arrestin2-vYnL) (converted)

T3 sequence (P0DMS8 whole entry W243F): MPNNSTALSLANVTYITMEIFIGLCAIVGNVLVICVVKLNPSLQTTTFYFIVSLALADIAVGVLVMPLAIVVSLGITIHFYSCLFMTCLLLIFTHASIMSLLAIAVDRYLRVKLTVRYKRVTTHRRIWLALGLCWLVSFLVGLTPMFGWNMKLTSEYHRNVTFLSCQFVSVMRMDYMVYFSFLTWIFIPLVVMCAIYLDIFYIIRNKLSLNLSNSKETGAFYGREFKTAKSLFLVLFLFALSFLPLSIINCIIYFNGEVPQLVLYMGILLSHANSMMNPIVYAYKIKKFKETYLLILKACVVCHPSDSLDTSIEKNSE
T3 sequence (P32121 whole entry partner): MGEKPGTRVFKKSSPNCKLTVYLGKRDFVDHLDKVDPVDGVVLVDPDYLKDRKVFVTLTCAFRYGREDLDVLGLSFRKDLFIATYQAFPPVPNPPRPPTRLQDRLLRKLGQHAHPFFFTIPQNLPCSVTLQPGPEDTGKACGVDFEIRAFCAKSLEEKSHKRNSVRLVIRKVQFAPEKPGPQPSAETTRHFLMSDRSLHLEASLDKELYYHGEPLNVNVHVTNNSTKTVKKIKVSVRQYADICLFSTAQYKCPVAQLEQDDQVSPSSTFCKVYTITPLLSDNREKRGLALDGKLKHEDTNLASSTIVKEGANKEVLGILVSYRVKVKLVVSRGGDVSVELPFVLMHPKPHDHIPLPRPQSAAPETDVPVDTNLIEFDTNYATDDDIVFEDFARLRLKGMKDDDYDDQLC
T1 sequence (P32121 whole entry partner, one chain of several): as the sequence (P32121 whole entry partner) above

Structure (SMILES) | % maximal internalization vs. 10 μM NECA at 2 h (BiFC) (A3-vYc/β-arrestin2-vYnL; 10 μM, 2 h) [%] | Maximal BiFC (%) (A3-vYc/β-arrestin2-vYnL; 60 min) | EC50 (A3-vYc/β-arrestin2-vYnL; [2]) [nM] | Emax (A3-YFP) [%] | EC50 (A3-YFP; read-out: pEC50 (cAMP accumulation assay) (converted)) [nM] | % maximal internalization vs. 10 μM NECA at 2 h (BiFC) ([1]; 10 μM, 2 h) [%] | Maximal BiFC (%) ([1]; 60 min) | EC50 [1, 2] [nM] | internalization of SNAP-tagged receptor seen in confocal images (SNAP-A3 W243F)
CCCCC#Cc1nc(NC)c2ncn([C@@H]3O[C@H](CO)[C@@H](O)[C@H]3O)c2n1 [HEMADO, 2-(1-hexynyl)-N-methyladenosine] | 84.3 ± 8.2 | 72.2 ± 7.1 | 6.46 | 80 ± 5.1 | 2.4 | 58.0 ± 5.8 | 54.5 ± 6.1 | 10.7 | did not result in any clear change in the localization
CCNC(=O)[C@H]1O[C@@H](n2cnc3c(N)ncnc32)[C@H](O)[C@@H]1O [NECA, 5-(N-ethylcarboxamido)adenosine] | – | 100 | – | 77.5 ± 6.9 | – | – | 100 | – | retained the ability to cause internalization
